# Tests used:
# [1] = system: NY p81 specific CD8+ T cells; test: Specific CD8+ T cell induction in mice, intracellular cytokine staining (NY p81 epitope); assay type: in vivo, BALB/c mice; conditions: FIG. 5; ESO1 LP vaccines complexed with CHP, CpG oligo DNA
# Text: (§1) A long chain peptide antigen ESO1 LP (native type) (Sequence No. 16) and a long chain peptide antigen ESO1 LP (Y6) (Sequence No. 17), both containing a mouse CD8+ T cell epitope sequence (NY p81 or NY p82) and a mouse CD4+ T cell epitope sequence (NY p91) that are derived from human NY-ESO-1 antigen, were synthesized. As the interepitope sequence between epitopes, the native amino acid sequence of NY-ESO-1 was retained in the ESO1 LP (native type) and the sequence of six consecutive tyrosines (Y6) was used in the ESO1 LP (Y6). Vaccines containing the respective long chain peptide antigens were administered to mice in the same manner as in FIG. 1 and the frequencies of CD8+ T cells and CD4+ T cells specific to the respective epitope sequences were measured by the intracellular cytokine staining method.
# (§2) Long chain peptide antigens MEN, all containing three types of mouse CD8+ T cell epitope sequences (MA p265 (Sequence No. 27), NY p81 (Sequence No. 29), and mERK2 9m (Sequence No. 28)), were synthesized. The interepitope sequences between the respective epitopes were one to six consecutive tyrosines (Sequence Nos. 1 and 9-12). Vaccines containing the respective long chain peptide antigens were administered to mice in the same manner as in FIG. 1 and the frequencies of CD8+ T cells specific to the respective epitope sequences were measured by the intracellular cytokine staining method.
# as §2, with “five” for “one”, “ten” for “six”, “13-15).” for “9-12).”, “method. […]” for “method.”
# [2] = system: NY p91 specific CD4+ T cells; test: Specific CD4+ T cell induction in mice, intracellular cytokine staining (NY p91 epitope); assay type: in vivo, BALB/c mice; conditions: FIG. 5; ESO1 LP vaccines complexed with CHP, CpG oligo DNA
# Text: as §1
# Each CHP/long chain peptide complex as the vaccine and the CpG oligo DNA as the adjuvant were administered at the same time to a mouse. Administration was performed by subcutaneous injection on the back of the mouse. As the dose, the CHP/long chain peptide complex was administered at 0.05 to 0.1 mg equivalent of long chain peptide per administration. […]
# The mouse spleen cells were added at 5×10^6 cells/0.5 mL per well to a 24-well culture plate (Nunc). […] The cells were analyzed by a flow cytometer (FACS Canto II, BD Biosciences) using the included analysis software (FACSDiva).
# CD8+ T cell = conditions: compared with NY p81; Non-Patent Document 8; cited from earlier work
# [3] = system: NY p157 specific CD8+ T cell clone 1G4 cells; test: Antigen presentation by LCL electroporated with mRNA vaccine, IFN-γ ELISPOT (1G4); assay type: cell-based, human; conditions: FIG. 11; mRNA introduced into LCL by electroporation
# Description: (§3) The interepitode sequences between the respective epitopes were the six consecutive amino acids shown in FIG. 11, namely sequence Nos. 31-34. Each mRNA was introduced in vitro as a vaccine into LCL by electroporation. Using these LCL as the antigen-presenting cells, they were co-cultured with CD8+ T cell clone 1G4 cells specific to NY p157 or CD8+ T cell clone RNT007#45 cells specific to MA4 p143 and the activation of the CD8+ T cells due to antigen presentation was measured by the IFN-γ ELISPOT method.
# (§4) mRNA was introduced by an electroporation method (300V, 700 μs) using ECM830 into LCL that was rinsed and suspended in the same manner as in (9). The cells were cultured for 24 hours at 37° C. in the presence of 5% CO2 and then used as antigen-presenting cells.
# (§5) 75 μL aliquots of anti-IFN-γ antibody for capture, diluted to an appropriate concentration, were dispensed into a 96-well plate (Millipore Corp., Multiscreen HA, MAHAS4510) specially designed for ELISPOT and left to stand overnight at 4° C. After discarding the liquid and rinsing with RPMI medium, 100 μL aliquots of RPMI medium containing 10% fetal bovine serum were dispensed and the plate was left to stand for not less than 1 hour at 37° C. The liquid was discarded, and the LCL prepared in (9) or (10) was adjusted to 5×10^4 cells/100 μL/well and added to each well. […]
# [4] = system: MA4 p143 specific CD8+ T cell clone RNT007 #45 cells; test: Antigen presentation by LCL electroporated with mRNA vaccine, IFN-γ ELISPOT (RNT007 #45); assay type: cell-based, human; conditions: FIG. 11; mRNA introduced into LCL by electroporation
# Description: as §3, §4, §5
Molecule,induction of NY p81 specific CD8+ T cells [1],induction of NY p91 specific CD4+ T cells [2],immunogenicity (CD8+ T cell),activation of 1G4 cells [3],activation of RNT007 #45 cells [4]
"GPESRLLYYYYYYYLAMPFATPMEAELARRSLA (Long chain peptide antigen, containing a mouse CD8+ T cell epitope sequence (NY p81) and a mouse CD4+ T cell epitope sequence (NY p91)) [ESO1 LP (Y6)]",significant,clearly observed,,,
"GARGPESRLLEFYLAMPFATPMEAELARRSLAQDAPPLPV [ESO1 LP (native type), reference compound]",hardly observed,clearly observed,,,
"GPESRLL (Peptide sequence containing mouse CD8+ T cell epitope, NY p82)",,,poorer in immunogenicity than NY p81,,
"NMW(Y6) mRNA: mRNA (RNA vaccine) from template cDNA Sequence No. 31, encoding long chain peptide antigen NMW with Y6 interepitope sequence (nucleic acid, mRNA transcribed from template cDNA; DNA sequence of a long chain peptide antigen, containing three types of human CD8+ T cell recognition epitope sequences (NY p157, MA4 p143, and WT1 p235)) DNA: GGATCCATGAGCCTCCTGATGTGGATTACCCAATGCTATTACTACTATTACTACAACTATAAGAGATGTTTCCCCGTGATCTATTACTACTACTACTATTGCTATACATGGAATCAGATGAACCTGTGAGAATTC",,,,clearly confirmed,clearly confirmed

# Reference: patent US11179450B2, “Long chain antigen containing interepitope sequence that promotes antigen presentation to T cells” (MIE UNIVERSITY, priority 2013, dated 2021)
